According to article PMC6632198, “In planta high levels of hydrolysable tannins inhibit peroxidase mediated anthocyanin degradation and maintain abaxially red leaves of Excoecaria Cochinchinensis” (BMC Plant Biology, 2019):

Biological target: T1, ADE/POD (anthocyanin degradation enzyme/peroxidase), purified Osmanthus POD
T1 construct: major in-gel activity band about 110 kDa on semi-native PAGE
Test: guaiacol oxidation, absorbance at […] nm
Format: biochemical, Osmanthus fragrans
Details: guaiacol and H2O2 as substrates, 50 mM phosphate buffer pH 7.0; partially purified enzyme

Work on `O=C(O)c1cc(O)c(O)c(O)c1` [gallic acid] yielded an IC50 of 35.55 μM GAE.
